# Results: US8829039B2, “Dihydroindolinone derivatives” (Shanghai Institute of Pharmaceutical Industry, priority 2008, dated 2014)
# Assays:
# Fibroblast NIH/3T3 = experiment: Inhibition of fibroblast NIH/3T3 proliferation (MTT); assay type: cell-based; conditions: Mus musculus, NIH3T3, 48 h, read-out: Inhibition of NIH/3T3 cell proliferation in vitro IC50
# From the text: The method commonly used at present for studying fibroblast proliferation associated diseases, i.e., for studying tissue and organ fibrosis, is measuring effects of test compounds on NIH/3T3 cell proliferation (Gao Z. M., Wan K., Effect of inhibition of NIH/3T3 cell proliferation by Cantharidin on prevention and treatment of organ and tissue fibrosis. Chinese Journal of Clinical Rehabilitation, 2004 (2). Tao Y. Y., Wang X. L., Effects of Salvianolic Acid-B on TGF-β1/ERK Signaling Transduction in NIH/3T3 Fibroblast. Journal of Capital Medical University, 2007 (2)).
# Fibroblast NIH/3T3 in logarithmic growth phase was seeded in a 96-well plate, by a certain number of cells (100 μL/well, 0.5−1×10^4 cells/mL). After incubating for 24 h, the screened samples (20 μl/well) were added (directly added after cell suspension was seeded in the plate), incubated for further 48 h at 37° C. and 5% CO2. Afterwards, MTT (5 mg/mL) was added to the 96-well plate (20 μL/well). The cells were incubated for another 4 h, and then dissolved with DMSO (150 μL/well) and measured with a microplate reader at 490 nm. The inhibition rate and IC50 were calculated.
# Lung cancer cell H460 = experiment: Inhibition of tumor cell proliferation in vitro (MTT), H460; assay type: cell-based; conditions: Homo sapiens, NCI-H460, 48 hrs, read-out: Growth inhibition in vitro IC50
# Protocol: (§1) The activity assay of the compounds of the invention was carried out through common methods in the art. Commercially available Sunitinib was used as positive control, and lung cancer cell H460, colon cancer cell COLO205 and HT29, breast cancer cell A435 were used as exemplary tumor cells. The tested compounds were prepared by the methods disclosed in the Examples above.
# (§2) A certain amount (100 μL/well, 0.5−1×10^4 cells/mL) of lung cancer cell H460, colon cancer cell COLO205, and breast cancer cell A435, etc. in logarithmic growth phase were seeded in a 96-well plate, and incubated in an incubator for 24 hrs at 37° C. and 5% CO2. Afterwards, tested compounds and positive control (20 μL/wells) were added, followed by 80 µL of 10% serum medium, and then the tumor cells were incubated for further 48 hrs at 37° C. and 5% CO2. Afterwards, MTT (5 mg/mL) was added to the 96-well plates (20 μL/well), and the cells were incubated for another 4 h. After removing the supernatant, the cells were dissolved with DMSO (150 μL/well) and measured with a microplate reader at 490 nm.
# [1] = system: colon cancer cell COLO205; experiment: Inhibition of tumor cell proliferation in vitro (MTT), COLO205; assay type: cell-based; conditions: Homo sapiens, COLO 205, 48 hrs, read-out: Growth inhibition in vitro IC50
# Protocol: as §1, §2
# breast cancer cell A435 = experiment: Inhibition of tumor cell proliferation in vitro (MTT), A435; assay type: cell-based; conditions: 48 hrs, read-out: Growth inhibition in vitro IC50
# Protocol: as §1, §2
# [2] = system: human breast cancer cell MDA-MB-231; experiment: Anti-tumor activity assay (MTT), MDA-MB-231; assay type: cell-based; conditions: 48 hrs, samples stored at −20° C. for one week, read-out: Inhibition rate; for inhibition at 0.1 µg/mL: final concentration 0.1 μg/mL; for inhibition at 1 µg/mL: final concentration 1 μg/mL; for inhibition at 10 µg/mL: final concentration 10 μg/mL
# Protocol: (§3) These tests were carried out using conventional operations in the art. Specifically, the following materials and methods were employed:
# (§4) Human cervical cancer cell Hela, human liver cancer cell SMMC-7721, human lung cancer cell A549, poorly differentiated human gastric adenocarcinoma cell BGC-823, human breast cancer cell MDA-MB-231.
# (§5) To a bottle containing exponential growth phase cells in good condition, 0.25% trypsin solution was added. […] The cell suspension was seeded in a 96-well plate with an amount of 100 μL/well, incubated in a CO2 incubator for 24 hrs. 20 μL/well of tested compounds were added, followed by […], of 10% serum medium, and incubated for 48 hrs. 20 μL/well of MTT (5 mg/mL) was added to the 96-well plate, and the cells were incubated for 4 hrs in the incubator. After removing the supernatant, 150 μL/well of DMSO was added, and the cells were shaked in a horizontal swing bed for 10 minutes. Optical density value (OD value) of each well was measured with an ELISA analyzer at 490 nm, and cell inhibition rate was calculated. The corresponding solvent was used as negative control, and paclitaxel was used as positive control.
# [3] = system: human colon cancer HT-29 cells transplanted in nude mice; experiment: Growth inhibition of human cancer HT-29 cells transplanted in nude mice; assay type: in vivo; conditions: for Body weight d0 / Body weight d21: nude mice with HT-29 tumor; for Body weight d0: d0, time of administration in separate cages; for Body weight d0 / TV d0: 30 mg/kg group; for Body weight d21 / T/C (%) / RTV / TV d21: 30 mg/kg intragastrically once a day for 21 days; for T/C (%): relative tumor proliferation rate TRTV/CRTV; for RTV: relative tumor volume TVt/TV0; for TV d0: tumor volume at d0, time of administration in separate cages; for TV d21: tumor volume at d21
# Protocol: A piece of tumor tissue in vigorous growth phase was obtained and cut into the size of about 1.5 mm^3, and subcutaneously inoculated into the right axillary region of nude mice aseptically. Diameters of transplanted tumors in nude mice were measured with a vernier caliper. After tumors grew to 100˜300 mm^3, the animals were randomly divided into 6 groups: model control group, Sunitinib group (30 mg/kg), Compound 1 group (30 mg/kg), Compound 2 group (30 mg/kg), Compound 3 group (30 mg/kg), Compound 4 group (30 mg/kg). […] Meanwhile, the negative control group was administered equivalent amount of sterile saline. The dynamic observation of antitumor effects of compounds 1-4 and Sunitinib was performed by measuring tumor diameters. […] The general behavior of nude mice was observed and recorded daily. (1) Tumor volume (TV), calculated by the equation: […] wherein a, b represent length and width, respectively. […] RTV=TVt/TV0 wherein TV0 represents the tumor volume at the beginning of administration in separated cages (ie. d0), TVt represents the tumor volume of each measurement. […] T/C %=(TRTV/CRTV)×100% TRTV: RTV of positive control group and each test compound group. CRTV: RTV of model control group.
# [4] = system: Human cervical cancer cell Hela; experiment: Anti-tumor activity assay (MTT), Hela; assay type: cell-based; conditions: 48 hrs, samples freshly prepared with DMSO, read-out: Inhibition rate; for inhibition at 0.1 µg/mL: final concentration 0.1 μg/mL; for inhibition at 1 µg/mL: final concentration 1 μg/mL; for inhibition at 10 µg/mL: final concentration 10 μg/mL
# Protocol: as §3, §4, §5
# [5] = system: poorly differentiated human gastric adenocarcinoma cell BGC-823; experiment: Anti-tumor activity assay (MTT), BGC-823; assay type: cell-based; conditions: 48 hrs, samples stored at −20° C. for one week, read-out: Inhibition rate; for inhibition at 0.1 µg/mL: final concentration 0.1 μg/mL; for inhibition at 1 µg/mL: final concentration 1 μg/mL
# Protocol: as §3, §4, §5
# [6] = system: human liver cancer cell SMMC-7721; experiment: Anti-tumor activity assay (MTT), SMMC-7721; assay type: cell-based; conditions: 48 hrs, samples stored at −20° C. for one week, read-out: Inhibition rate; for inhibition at 0.1 µg/mL: final concentration 0.1 μg/mL; for inhibition at 1 µg/mL: final concentration 1 μg/mL
# Protocol: as §3, §4, §5
# [7] = system: human lung cancer cell A549; experiment: Anti-tumor activity assay (MTT), A549; assay type: cell-based; conditions: 48 hrs, samples stored at −20° C. for one week, read-out: Inhibition rate; for inhibition at 0.1 µg/mL: final concentration 0.1 μg/mL; for inhibition at 1 µg/mL: final concentration 1 μg/mL
# Protocol: as §3, §4, §5
smiles,measurement,setting,value
"Cc1[nH]c(/C=C2\C(=O)Nc3ccc(F)cc32)c(C)c1C(=O)NCC(=O)Nc1ccc(N(C)C)cc1 [Compound 8, N-{2-[4-(dimethylamino)anilino]-2-oxoethyl}-5-(5-fluoro-2-oxo-1,2-dihydroindole-3-methylene)-2,4-dimethyl-1H-pyrrole-3-formamide]",IC50,Fibroblast NIH/3T3,884 nM
same,IC50,Lung cancer cell H460,170 nM
same,IC50,[1],160 nM
same,IC50,breast cancer cell A435,91 nM
"CCN(CC)CCNC(=O)c1c(C)[nH]c(/C=C2\C(=O)Nc3ccc(F)cc32)c1C [Sunitinib, reference compound]",inhibition at 0.1 µg/mL,[2],6.4%
same,inhibition at 1 µg/mL,[2],28.9%
same,inhibition at 10 µg/mL,[2],90.2%
same,Body weight d0,[3],20.4 ± 2.0 g
same,Body weight d21,[3],21.0 ± 1.9 g
same,T/C (%),[3],51.5%
same,RTV,[3],4.6 ± 1.5
same,TV d0,[3],198.2 ± 62.4 mm^3
same,TV d21,[3],911.8 ± 481.7 mm^3
same,IC50,Lung cancer cell H460,680 nM
same,inhibition at 0.1 µg/mL,[4],-0.21%
same,inhibition at 1 µg/mL,[4],24.7%
same,inhibition at 10 µg/mL,[4],99.2%
same,IC50,[1],550 nM
same,inhibition at 0.1 µg/mL,[5],9.53%
same,inhibition at 1 µg/mL,[5],19.2%
same,inhibition at 10 µg/mL,[5]; final concentration 10 μg/mL,88.8%
same,inhibition at 0.1 µg/mL,[6],-38.8%
same,inhibition at 1 µg/mL,[6],-12.3%
same,inhibition at 10 µg/mL,[6]; final concentration 10 μg/mL,72.5%
same,IC50,breast cancer cell A435,630 nM
same,inhibition at 0.1 µg/mL,[7],7.29%
same,inhibition at 1 µg/mL,[7],29.1%
same,inhibition at 10 µg/mL,[7]; final concentration 10 μg/mL,98.7%
"CCN1CCCC1CNC(=O)C(C)NC(=O)c1c(C)[nH]c(/C=C2\C(=O)Nc3ccc(F)cc32)c1C (stereo not shown) [Compound 12, N-{2-[(1-ethylpyrrolidin-2-yl)methylamino]-1-oxoprop-2-yl}-5-(5-fluoro-2-oxo-1,2-dihydroindole-3-methylene)-2,4-dimethyl-1H-pyrrole-3-formamide]",IC50,Lung cancer cell H460,440 nM
same,IC50,[1],310 nM
same,IC50,breast cancer cell A435,160 nM
"Cc1[nH]c(/C=C2\C(=O)Nc3ccc(F)cc32)c(C)c1C(=O)Nc1ccc(N(C)C)cc1 [Compound 7, N-[4-(dimethylamino)phenyl]-5-(5-fluoro-2-oxo-1,2-dihydroindole-3-methylene)-2,4-dimethyl-1H-pyrrole-3-formamide]",IC50,Fibroblast NIH/3T3,505 nM
same,IC50,Lung cancer cell H460,230 nM
same,IC50,[1],170 nM
same,IC50,breast cancer cell A435,82 nM
"Cc1[nH]c(/C=C2\C(=O)Nc3ccc(F)cc32)c(C)c1C(=O)NC1CCN(Cc2ccccc2)C1 (stereo not shown) [Compound 6, N-(1-benzylpyrrolidin-3-yl)-5-(5-fluoro-2-oxo-1,2-dihydroindole-3-methylene)-2,4-dimethyl-1H-pyrrole-3-formamide]",IC50,Fibroblast NIH/3T3,698 nM
same,IC50,Lung cancer cell H460,330 nM
same,IC50,[1],220 nM
same,IC50,breast cancer cell A435,87 nM
Cc1[nH]c(/C=C2\C(=O)Nc3ccc(F)cc32)c(C)c1C(=O)NCC1CCNCC1 [Compound 4],IC50,Fibroblast NIH/3T3,1180 nM
same,Body weight d0,[3],20.0 ± 2.2 g
same,Body weight d21,[3],20.3 ± 1.5 g
same,T/C (%),[3],41.0%
same,RTV,[3],3.6 ± 3.2
same,TV d0,[3],195.0 ± 67.4 mm^3
same,TV d21,[3],791.7 ± 815.0 mm^3
same,IC50,Lung cancer cell H460,580 nM
same,IC50,[1],400 nM
same,IC50,breast cancer cell A435,220 nM
"CCN1CCCC1CNC(=O)CNC(=O)c1c(C)[nH]c(/C=C2\C(=O)Nc3ccc(F)cc32)c1C (stereo not shown) [Compound 11, N-{2-[(1-ethylpyrrolidin-2-yl)methylamino]-2-oxoethyl}-5-(5-fluoro-2-oxo-1,2-dihydroindole-3-methylene)-2,4-dimethyl-1H-pyrrole-3-formamide]",IC50,Lung cancer cell H460,410 nM
same,IC50,[1],280 nM
same,IC50,breast cancer cell A435,150 nM
"CC(=O)O[C@H]1C(=O)[C@@]2(C)[C@H]([C@H](OC(=O)c3ccccc3)[C@]3(O)C[C@H](OC(=O)[C@H](O)[C@@H](NC(=O)c4ccccc4)c4ccccc4)C(C)=C1C3(C)C)[C@]1(OC(C)=O)CO[C@@H]1C[C@@H]2O [Paclitaxel, reference compound]",inhibition at 0.1 µg/mL,[2],5.9%
same,inhibition at 1 µg/mL,[2],4.9%
same,inhibition at 10 µg/mL,[2],29.5%
same,inhibition at 0.1 µg/mL,[4],79.7%
same,inhibition at 1 µg/mL,[4],78.1%
same,inhibition at 10 µg/mL,[4],72.7%
same,inhibition at 0.1 µg/mL,[5],85.1%
same,inhibition at 1 µg/mL,[5],86.6%
same,inhibition at 0.1 µg/mL,[6],-6.71%
same,inhibition at 1 µg/mL,[6],-6.59%
same,inhibition at 0.1 µg/mL,[7],20.1%
same,inhibition at 1 µg/mL,[7],23.8%
